Results from patent US4241069A, “3-Methylene flavanones and 3-methylene chromanones” (Miles Laboratories, Inc., priority 1979, dated 1980).
≈ marks a conversion by molar mass, not a printed value.

Assays:
[1] = test system: A. fumigatus NRRL 165; assay: MIC, agar incorporation method; format: cell-based; conditions: Aspergillus fumigatus, NRRL165, 32° C., 48-72 hours, read-out: Minimal Inhibitory Concentration
Experimental: (§1) The compounds of the present invention were tested for their ability to inhibit the growth of microorganisms by in vitro tests. Generally the in vitro tests involve growing representative microorganisms under conditions favorable to such growth and measuring the effectiveness of one or more compounds in inhibiting or destroying the growth of the microorganisms. The microorganisms used include representative bacteria, fungi and yeasts.
(§2) A representative selection of the test microorganisms were cultured in a nutrient broth, such as, for example, Eugon, commercially available from Difco Laboratories, Detroit, Michigan. Bacteria and Candida species were cultured for 24 hours at 32°-37° C. and fungi were cultured for approximately one week at 32° C. Inocula were prepared by suspending the growth or spores from a slant culture in sufficient sterile normal (0.9 percent) saline or Eugon broth, to yield cell or spore concentrations of 1,000,000 cells per milliliter. Anaerobic bacteria were cultured for 48-72 hours at 32°-37° C. in a thioglycollate containing medium, for example, Fluid Thioglycollate medium or NIH thioglycollate broth, commercially available from Difco Laboratories.
(§3) The compounds of the present invention were tested for activity against bacteria, yeasts and fungi by the agar incorporation method described below. MA 1347, 3-(dimethylaminomethyl)flavanone (disclosed in U.S. Pat. No. 3,753,985) was used as a comparative standard along with controls for each solvent system used.
(§4) A series of agar plates containing two-fold dilutions of each compound to be tested, ranging in concentration from 100 to 3.1 mcg/ml of agar medium was prepared. Aliquots of each concentration (100, 50, 25, 12.5, 6.2, and 3.1) prepared in N,N-dimethylformamide or 50 percent aqueous DMF were added to liquid Eugon agar at 48° C. (one part test solution to 100 parts agar). In some cases, tests with further dilutions to 0.125 mcg/ml were conducted. The agar medium, containing the 3-methylene flavanone or chromanone compound to be tested, was then dispensed into petri dishes and allowed to solidify. The solidified plates were kept overnight at room temperatures to dry the surface of the agar.
(§5) The agar plates were then inoculated with a drop of the standardized cell or spore suspension. Inoculated plates were incubated at 32° C. The inhibition end-point or minimum inhibitory concentration (MIC) shown in Table D represent the lowest concentration of test compound which inhibited the growth of the microorganism. Visual determination of growth inhibition was used. Bacteria and yeast end-points were determined after 24 hours incubation; molds, dermatophytes and anaerobes after 48-72 hours incubation. MIC values shown as ranges represent the extremes found in repeat assays. Virtually all such values were written plus or minus one dilution, the accepted variation of a two-fold dilution assay.

[2] = test system: Aspergillus niger ATCC 16404; assay: MIC, agar incorporation method; format: cell-based; conditions: ATCC16404, 32° C., 48-72 hours, read-out: Minimal Inhibitory Concentration
Experimental: as §1, §2, §3, §4, §5

[3] = test system: C. albicans NRRL Y-477; assay: MIC, agar incorporation method; format: cell-based; conditions: Candida albicans, NRRLY477, 32° C., 24 hours, read-out: Minimal Inhibitory Concentration
Experimental: as §1, §2, §3, §4, §5

[4] = test system: C. guillermondii VM 42; assay: MIC, agar incorporation method; format: cell-based; conditions: 32° C., 24 hours; read-out: Minimal Inhibitory Concentration
Experimental: as §1, §2, §3, §4, §5

[5] = test system: C. krusei VM 29B; assay: MIC, agar incorporation method; format: cell-based; conditions: Pichia kudriavzevii, VM29B; 32° C., 24 hours; read-out: Minimal Inhibitory Concentration
Experimental: as §1, §2, §3, §4, §5

[6] = test system: C. tropicalis NRRL Y1410; assay: MIC, agar incorporation method; format: cell-based; conditions: Candida tropicalis, NRRLY1410; 32° C., 24 hours; read-out: Minimal Inhibitory Concentration
Experimental: as §1, §2, §3, §4, §5

[7] = test system: Candida albicans ATCC 10231; assay: MIC, agar incorporation method; format: cell-based; conditions: ATCC10231, C. albicans ATCC 10231, 32° C., 24 hours, read-out: Minimal Inhibitory Concentration
Experimental: as §1, §2, §3, §4, §5

[8] = test system: Escherichia coli ATCC 8739; assay: MIC, agar incorporation method; format: cell-based; conditions: ATCC8739, 32° C., 24 hours, read-out: Minimal Inhibitory Concentration
Experimental: as §1, §2, §3, §4, §5

[9] = test system: Microsporum gypseum ATCC 14683; assay: MIC, agar incorporation method; format: cell-based; conditions: Nannizzia gypsea, ATCC14683, 32° C., 48-72 hours; read-out: Minimal Inhibitory Concentration
Experimental: as §1, §2, §3, §4, §5

[10] = test system: Pseudomonas aeruginosa ATCC 14502; assay: MIC, agar incorporation method; format: cell-based; conditions: ATCC14502, 32° C., 24 hours, read-out: Minimal Inhibitory Concentration
Experimental: as §1, §2, §3, §4, §5

[11] = test system: Staphylococcus aureus ATCC 6538; assay: MIC, agar incorporation method; format: cell-based; conditions: Staphylococcus aureus, ATCC6538; S. aureus ATCC 6538; 32° C., 24 hours; read-out: Minimal Inhibitory Concentration
Experimental: as §1, §2, §3, §4, §5

[12] = test system: Streptococcus faecalis ATCC 10541; assay: MIC, agar incorporation method; format: cell-based; conditions: Enterococcus faecalis, ATCC10541; 32° C., 24 hours; read-out: Minimal Inhibitory Concentration
Experimental: as §1, §2, §3, §4, §5

[13] = test system: T. mentagrophytes CDC; assay: MIC, agar incorporation method; format: cell-based; conditions: Trichophyton mentagrophytes, 32° C., 48-72 hours, read-out: Minimal Inhibitory Concentration
Experimental: as §1, §2, §3, §4, §5

[14] = test system: T. mentagrophytes TM-2; assay: MIC, agar incorporation method; format: cell-based; conditions: Trichophyton mentagrophytes, TM2, 32° C., 48-72 hours, read-out: Minimal Inhibitory Concentration
Experimental: as §1, §2, §3, §4, §5

[15] = test system: T. rubrum ATCC 10218; assay: MIC, agar incorporation method; format: cell-based; conditions: Trichophyton rubrum, ATCC10218; 32° C., 48-72 hours; read-out: Minimal Inhibitory Concentration
Experimental: as §1, §2, §3, §4, §5

[16] = test system: Trichophyton mentagrophytes ATCC 4807; assay: MIC, agar incorporation method; format: cell-based; conditions: ATCC4807, 32° C., 48-72 hours, read-out: Minimal Inhibitory Concentration
Experimental: as §1, §2, §3, §4, §5

[17] = test system: S. aureus NRRL B2747; assay: MIC, agar incorporation method; format: cell-based, Staphylococcus aureus; conditions: Staphylococcus aureus, NRRLB2747, 32° C., 24 hours, read-out: Minimal Inhibitory Concentration
Experimental: as §1, §2, §3, §4, §5

[18] = test system: A. fumigatus NRRL 163; assay: MIC, agar incorporation method; format: cell-based; conditions: Aspergillus fumigatus, NRRL163, NRRL 163; 32° C., 48-72 hours; read-out: Minimal Inhibitory Concentration
Experimental: as §1, §2, §3, §4, §5

[19] = test system: Propionobacterium acnes ATCC 6919; assay: MIC, agar incorporation method, anaerobic; format: cell-based; conditions: 48 hours at 35° C., GasPak Anaerobic Jar, read-out: Minimal Inhibitory Concentration
Experimental: as §1, §2, §3, §4, §5
*Anaerobic: 48 hours incubation at 35° C. GasPak Anaerobic Jar

SMILES | MIC [1] [µg/mL] | MIC [2] [µg/mL] | MIC [3] [µg/mL] | MIC [4] [µg/mL] | MIC [5] [µg/mL] | MIC [6] [µg/mL] | MIC [7] [µg/mL] | MIC [8] [µg/mL] | MIC [9] [µg/mL] | MIC [10] [µg/mL] | MIC [11] [µg/mL] | MIC [12] [µg/mL] | MIC [13] [µg/mL] | MIC [14] [µg/mL] | MIC [15] [µg/mL] | MIC [16] [µg/mL] | MIC [17] [µg/mL] | MIC [18] [µg/mL] | MIC [19] [µg/mL]
C=C1C(=O)c2ccccc2OC1c1cccc(Cl)c1 (stereo not drawn) [Ex. 2, 3'-chloro-3-methylene flavanone] | 100 (≈ 369 µM) | 100 (≈ 369 µM) | 25 (≈ 92.3 µM) | 50 (≈ 185 µM) | 25 (≈ 92.3 µM) | 50 (≈ 185 µM) | 25 (≈ 92.3 µM) | > 100 | 6.2 (≈ 22.9 µM) | > 100 | ≤ 3.1 | 25 (≈ 92.3 µM) | 12.5 (≈ 46.2 µM) | 6.2 (≈ 22.9 µM) | ≤ 3.1 | 6.2 (≈ 22.9 µM) | 6.2 (≈ 22.9 µM) |  | 
C=C1C(=O)c2ccccc2OC1c1ccc(Br)cc1 (stereo not drawn) [Ex. 6, 4'-bromo-3-methylene flavanone] | 50 (≈ 159 µM) | 50 (≈ 159 µM) | 25 (≈ 79.3 µM) | 25 (≈ 79.3 µM) | 25 (≈ 79.3 µM) | 25 (≈ 79.3 µM) | 25 (≈ 79.3 µM) | > 100 | 6.2 (≈ 19.7 µM) | > 100 | ≤ 3.1 | 25 (≈ 79.3 µM) | 12.5 (≈ 39.7 µM) | 6.2 (≈ 19.7 µM) | 6.2 (≈ 19.7 µM) | 6.2 (≈ 19.7 µM) | 6.2 (≈ 19.7 µM) |  | 
C=C1C(=O)c2ccccc2OC1c1cccc(OC)c1 (stereo not drawn) [Ex. 7, 3'-methoxy-3-methylene flavanone] | > 100 | > 100 | 100 (≈ 376 µM) | > 100 | 100 (≈ 376 µM) | > 100 | > 100 | > 100 | 25 (≈ 93.9 µM) | > 100 | 25 (≈ 93.9 µM) | 100 (≈ 376 µM) | 25 (≈ 93.9 µM) | 25 (≈ 93.9 µM) | 12.5 (≈ 46.9 µM) | 25 (≈ 93.9 µM) | 25 (≈ 93.9 µM) |  | 
C=C1C(=O)c2ccccc2OC1c1ccc(OC)cc1 (stereo not drawn) [Ex. 8, 4'-methoxy-3-methylene flavanone] |  | 100 (≈ 376 µM) | 100 (≈ 376 µM) | 100 (≈ 376 µM) | 50 (≈ 188 µM) | > 100 | 100 (≈ 376 µM) | > 100 | 12.5 (≈ 46.9 µM) | > 100 | 12.5 (≈ 46.9 µM) | > 100 | 12.5 (≈ 46.9 µM) | 12.5 (≈ 46.9 µM) | 25 (≈ 93.9 µM) | 12.5 (≈ 46.9 µM) | 12.5 (≈ 46.9 µM) | 50 (≈ 188 µM) | > 100
C=C1C(=O)c2ccccc2OC1c1ccc(C(C)(C)C)cc1 (stereo not drawn) [Ex. 14, 4'-t-butyl-3-methylene flavanone] |  | 100 (≈ 342 µM) |  | > 100 | 50 (≈ 171 µM) | > 100 |  | > 100 | 12.5 to 25 (≈ 42.8 to 85.5 µM) | > 100 | ≤ 3.1 | 25 to 50 (≈ 85.5 to 171 µM) | 25 (≈ 85.5 µM) | 25 (≈ 85.5 µM) | 12.5 to 25 (≈ 42.8 to 85.5 µM) | 25 (≈ 85.5 µM) | 3.1 to 6.2 (≈ 10.6 to 21.2 µM) |  | ≤ 100
C=C1C(=O)c2ccc(OC)cc2OC1c1ccc(Cl)cc1 (stereo not drawn) [Ex. 18, 4'-chloro-7-methoxy-3-methylene flavanone] |  | 25 (≈ 83.1 µM) | 50 (≈ 166 µM) | > 100 | 25 (≈ 83.1 µM) | > 100 | 50 (≈ 166 µM) | > 100 | 6.2 (≈ 20.6 µM) | > 100 | ≤ 3.1 | 50 (≈ 166 µM) | 12.5 (≈ 41.6 µM) | 12.5 (≈ 41.6 µM) | 12.5 (≈ 41.6 µM) | 12.5 (≈ 41.6 µM) | 6.2 (≈ 20.6 µM) | 12.5 (≈ 41.6 µM) | ≤ 100
C=C1C(=O)c2cc(C)ccc2OC1c1ccccc1 (stereo not drawn) [compound 19, 6-methyl-3-methylene flavanone] |  | 25 (≈ 99.9 µM) | 25 (≈ 99.9 µM) | 25 (≈ 99.9 µM) | 25 (≈ 99.9 µM) | 25 (≈ 99.9 µM) | 25 (≈ 99.9 µM) | > 100 | 6.2 (≈ 24.8 µM) | > 100 | 6.2 (≈ 24.8 µM) | 50 (≈ 200 µM) | 6.2 (≈ 24.8 µM) | 6.2 (≈ 24.8 µM) | 6.2 (≈ 24.8 µM) | 6.2 (≈ 24.8 µM) | 6.2 (≈ 24.8 µM) | 25 (≈ 99.9 µM) | ≤ 100
